# From ChEMBL document CHEMBL1139192, “Novel bis(indolyl)maleimide pyridinophanes that are potent, selective inhibitors of glycogen synthase kinase-3” (Bioorg Med Chem Lett, 2007)
# Columns and labels:
# [1] = molecular target: Tyrosine-protein kinase ABL2 (Mus musculus) (UniProt Q4JIM5); test: Residual activity of mouse Arg at 1 uM relative to control
# [2] = molecular target: Receptor-type tyrosine-protein kinase FLT3 (Homo sapiens) (UniProt P36888); test: Residual activity of human Flt3 at 1 uM relative to control
# Sequence of Receptor-type tyrosine-protein kinase FLT3 (Homo sapiens) (P36888 whole entry): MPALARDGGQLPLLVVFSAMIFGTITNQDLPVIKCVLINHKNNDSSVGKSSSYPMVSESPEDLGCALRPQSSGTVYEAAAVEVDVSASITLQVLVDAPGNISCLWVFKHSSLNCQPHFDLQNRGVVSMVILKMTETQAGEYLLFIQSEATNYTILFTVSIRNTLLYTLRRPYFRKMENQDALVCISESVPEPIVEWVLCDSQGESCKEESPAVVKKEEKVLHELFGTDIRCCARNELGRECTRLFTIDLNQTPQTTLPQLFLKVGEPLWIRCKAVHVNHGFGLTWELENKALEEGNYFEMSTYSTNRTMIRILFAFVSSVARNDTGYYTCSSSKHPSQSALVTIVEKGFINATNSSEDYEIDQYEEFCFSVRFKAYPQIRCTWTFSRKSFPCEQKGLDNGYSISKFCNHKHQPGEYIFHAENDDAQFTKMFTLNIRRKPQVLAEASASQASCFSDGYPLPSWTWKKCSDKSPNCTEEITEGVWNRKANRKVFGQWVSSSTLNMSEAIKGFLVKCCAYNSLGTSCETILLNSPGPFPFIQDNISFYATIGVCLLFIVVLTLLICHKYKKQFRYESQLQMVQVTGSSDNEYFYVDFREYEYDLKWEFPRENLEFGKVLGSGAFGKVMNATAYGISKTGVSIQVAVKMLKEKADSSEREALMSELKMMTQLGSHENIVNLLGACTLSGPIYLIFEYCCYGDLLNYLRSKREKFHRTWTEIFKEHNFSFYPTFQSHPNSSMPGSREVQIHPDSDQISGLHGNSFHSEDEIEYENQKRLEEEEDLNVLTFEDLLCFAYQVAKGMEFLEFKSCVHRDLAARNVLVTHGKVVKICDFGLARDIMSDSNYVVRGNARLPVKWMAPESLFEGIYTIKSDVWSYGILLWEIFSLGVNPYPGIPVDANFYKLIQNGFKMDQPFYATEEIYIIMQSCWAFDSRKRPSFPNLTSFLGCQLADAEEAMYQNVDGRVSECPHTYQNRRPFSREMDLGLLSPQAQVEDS
# [3] = molecular target: BDNF/NT-3 growth factors receptor (Homo sapiens, UniProt Q16620); test: Residual activity of human TrkB at 1 uM relative to control
# Sequence of BDNF/NT-3 growth factors receptor (Q16620 32-822 limits assumed): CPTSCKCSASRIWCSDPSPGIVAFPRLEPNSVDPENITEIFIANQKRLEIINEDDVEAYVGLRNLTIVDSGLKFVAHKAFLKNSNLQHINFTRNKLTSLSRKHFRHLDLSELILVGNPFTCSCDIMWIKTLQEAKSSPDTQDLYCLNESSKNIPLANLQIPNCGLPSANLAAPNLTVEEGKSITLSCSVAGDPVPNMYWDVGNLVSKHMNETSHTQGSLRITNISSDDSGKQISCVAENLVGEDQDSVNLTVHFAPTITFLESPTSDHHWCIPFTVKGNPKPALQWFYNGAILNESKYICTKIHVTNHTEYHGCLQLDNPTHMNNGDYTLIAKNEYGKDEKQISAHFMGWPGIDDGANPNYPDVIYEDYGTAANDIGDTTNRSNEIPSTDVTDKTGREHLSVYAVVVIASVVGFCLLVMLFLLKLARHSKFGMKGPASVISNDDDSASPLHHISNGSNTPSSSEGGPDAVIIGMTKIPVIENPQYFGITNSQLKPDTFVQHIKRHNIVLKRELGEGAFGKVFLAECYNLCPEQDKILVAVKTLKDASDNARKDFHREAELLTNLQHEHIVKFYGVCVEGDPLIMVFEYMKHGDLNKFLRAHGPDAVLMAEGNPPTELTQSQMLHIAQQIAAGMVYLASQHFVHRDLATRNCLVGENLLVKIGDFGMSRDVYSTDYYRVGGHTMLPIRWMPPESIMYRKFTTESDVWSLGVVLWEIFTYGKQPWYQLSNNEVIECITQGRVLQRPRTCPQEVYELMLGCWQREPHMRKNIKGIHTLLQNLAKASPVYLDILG
# [4] = molecular target: Protein kinase C eta type (Homo sapiens) (UniProt P24723); test: Residual activity of human PKCeta at 1 uM relative to control
# Sequence of Protein kinase C eta type (Homo sapiens) (P24723 whole entry): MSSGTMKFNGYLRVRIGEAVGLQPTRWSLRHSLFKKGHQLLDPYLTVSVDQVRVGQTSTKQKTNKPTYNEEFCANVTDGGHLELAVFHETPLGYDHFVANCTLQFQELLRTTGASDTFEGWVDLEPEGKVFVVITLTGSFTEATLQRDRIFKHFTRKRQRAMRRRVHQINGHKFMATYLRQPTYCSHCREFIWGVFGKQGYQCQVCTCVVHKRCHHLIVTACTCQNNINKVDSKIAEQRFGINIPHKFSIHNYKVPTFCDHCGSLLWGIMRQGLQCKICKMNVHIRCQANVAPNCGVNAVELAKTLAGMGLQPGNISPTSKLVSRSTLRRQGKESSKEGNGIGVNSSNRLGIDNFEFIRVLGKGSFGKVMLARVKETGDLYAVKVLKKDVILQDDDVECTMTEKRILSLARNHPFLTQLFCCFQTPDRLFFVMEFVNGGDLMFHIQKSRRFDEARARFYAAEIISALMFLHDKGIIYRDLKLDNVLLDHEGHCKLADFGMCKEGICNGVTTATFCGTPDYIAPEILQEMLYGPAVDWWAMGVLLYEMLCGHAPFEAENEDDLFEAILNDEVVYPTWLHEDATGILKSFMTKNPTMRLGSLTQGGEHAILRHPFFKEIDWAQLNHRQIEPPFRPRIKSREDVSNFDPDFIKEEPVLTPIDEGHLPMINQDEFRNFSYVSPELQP
# Homo sapiens [5] = species: Homo sapiens; test: Residual activity of human PKBalpha at 1 uM relative to control
# [6] = molecular target: Protein kinase C alpha type (Homo sapiens) (UniProt P17252); test: Residual activity of human PKCalpha at 1 uM relative to control
# Homo sapiens [7] = species: Homo sapiens; test: Residual activity of human CDK2/Cyclin A at 1 uM relative to control
# Homo sapiens [8] = species: Homo sapiens; test: Residual activity of human CDK6/Cyclin D at 1 uM relative to control
# [9] = molecular target: Ribosomal protein S6 kinase alpha-1 (Rattus norvegicus) (UniProt Q63531); test: Inhibition of rat Rsk1 at 1 uM relative to control; values are per cent of control
# Sequence of Ribosomal protein S6 kinase alpha-1 (Rattus norvegicus) (Q63531 whole entry): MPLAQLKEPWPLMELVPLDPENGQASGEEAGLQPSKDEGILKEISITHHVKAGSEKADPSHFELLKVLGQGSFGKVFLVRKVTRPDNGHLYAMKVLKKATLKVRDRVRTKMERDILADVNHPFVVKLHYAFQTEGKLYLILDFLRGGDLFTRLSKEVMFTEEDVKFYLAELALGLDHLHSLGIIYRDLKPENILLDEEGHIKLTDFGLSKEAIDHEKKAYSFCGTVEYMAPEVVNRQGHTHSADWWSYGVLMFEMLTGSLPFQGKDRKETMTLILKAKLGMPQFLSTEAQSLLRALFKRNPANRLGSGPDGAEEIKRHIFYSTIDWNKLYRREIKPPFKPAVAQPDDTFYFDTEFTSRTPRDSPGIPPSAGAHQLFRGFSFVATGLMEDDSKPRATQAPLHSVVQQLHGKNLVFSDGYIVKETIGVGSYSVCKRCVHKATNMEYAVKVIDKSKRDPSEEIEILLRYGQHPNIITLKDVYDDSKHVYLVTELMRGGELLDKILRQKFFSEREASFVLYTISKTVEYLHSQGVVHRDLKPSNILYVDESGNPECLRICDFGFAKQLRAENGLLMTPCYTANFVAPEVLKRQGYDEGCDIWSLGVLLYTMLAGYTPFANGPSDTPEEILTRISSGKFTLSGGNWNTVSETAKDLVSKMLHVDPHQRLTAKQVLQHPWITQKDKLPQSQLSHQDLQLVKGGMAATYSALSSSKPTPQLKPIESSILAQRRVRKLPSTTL
# [10] = molecular target: Tyrosine-protein kinase Fyn (Homo sapiens) (UniProt P06241); test: Inhibition of human Fyn at 1 uM relative to control; values are per cent of control
# [11] = molecular target: Mitogen-activated protein kinase 10 (Homo sapiens) (UniProt P53779); test: Inhibition of human JNK3 at 1 uM relative to control; values are per cent of control
# Sequence of Mitogen-activated protein kinase 10 (Homo sapiens) (P53779 whole entry): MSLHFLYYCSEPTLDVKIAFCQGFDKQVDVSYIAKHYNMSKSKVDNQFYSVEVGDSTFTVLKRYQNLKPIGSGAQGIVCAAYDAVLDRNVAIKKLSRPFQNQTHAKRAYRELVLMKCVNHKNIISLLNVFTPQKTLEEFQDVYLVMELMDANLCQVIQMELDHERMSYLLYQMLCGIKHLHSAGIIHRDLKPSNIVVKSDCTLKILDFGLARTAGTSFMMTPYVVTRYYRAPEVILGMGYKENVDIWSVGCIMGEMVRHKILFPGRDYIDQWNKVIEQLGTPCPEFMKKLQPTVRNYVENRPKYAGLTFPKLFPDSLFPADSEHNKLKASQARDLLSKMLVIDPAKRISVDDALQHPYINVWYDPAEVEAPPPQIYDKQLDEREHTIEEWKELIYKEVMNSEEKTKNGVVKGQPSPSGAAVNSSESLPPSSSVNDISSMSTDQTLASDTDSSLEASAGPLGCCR
# [12] = molecular target: T1, Serine/threonine-protein kinase D2 (Homo sapiens) (UniProt Q9BZL6); test: Inhibition of human PKD2 at 1 uM relative to control; values are per cent of control
# T1 sequence (whole entry): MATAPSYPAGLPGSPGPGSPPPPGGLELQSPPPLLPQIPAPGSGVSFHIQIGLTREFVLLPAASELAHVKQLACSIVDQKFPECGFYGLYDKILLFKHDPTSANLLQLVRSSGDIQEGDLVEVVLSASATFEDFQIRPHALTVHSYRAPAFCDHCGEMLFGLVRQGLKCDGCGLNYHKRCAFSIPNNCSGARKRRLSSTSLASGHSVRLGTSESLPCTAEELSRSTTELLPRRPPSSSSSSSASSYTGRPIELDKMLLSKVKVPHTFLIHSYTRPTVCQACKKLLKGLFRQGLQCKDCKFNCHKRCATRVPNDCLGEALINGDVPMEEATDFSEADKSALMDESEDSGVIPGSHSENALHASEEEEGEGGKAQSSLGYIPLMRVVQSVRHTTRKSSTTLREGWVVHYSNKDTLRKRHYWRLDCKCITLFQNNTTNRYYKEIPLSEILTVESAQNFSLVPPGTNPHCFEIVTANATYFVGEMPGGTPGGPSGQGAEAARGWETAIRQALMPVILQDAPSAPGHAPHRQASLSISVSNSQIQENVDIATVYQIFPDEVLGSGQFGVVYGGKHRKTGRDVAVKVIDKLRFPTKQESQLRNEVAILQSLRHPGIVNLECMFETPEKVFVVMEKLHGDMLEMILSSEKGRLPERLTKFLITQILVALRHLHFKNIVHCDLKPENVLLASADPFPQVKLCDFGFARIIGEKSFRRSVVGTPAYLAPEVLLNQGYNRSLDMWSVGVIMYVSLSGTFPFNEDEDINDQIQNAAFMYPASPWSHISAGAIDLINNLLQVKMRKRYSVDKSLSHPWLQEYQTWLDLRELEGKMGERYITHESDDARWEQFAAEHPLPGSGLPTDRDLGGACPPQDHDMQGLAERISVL
# [13] = molecular target: Ribosomal protein S6 kinase alpha-1 (Homo sapiens, UniProt Q15418); test: Inhibition of human Rsk1 at 1 uM relative to control; values are per cent of control
# Sequence of Ribosomal protein S6 kinase alpha-1 (Q15418 whole entry): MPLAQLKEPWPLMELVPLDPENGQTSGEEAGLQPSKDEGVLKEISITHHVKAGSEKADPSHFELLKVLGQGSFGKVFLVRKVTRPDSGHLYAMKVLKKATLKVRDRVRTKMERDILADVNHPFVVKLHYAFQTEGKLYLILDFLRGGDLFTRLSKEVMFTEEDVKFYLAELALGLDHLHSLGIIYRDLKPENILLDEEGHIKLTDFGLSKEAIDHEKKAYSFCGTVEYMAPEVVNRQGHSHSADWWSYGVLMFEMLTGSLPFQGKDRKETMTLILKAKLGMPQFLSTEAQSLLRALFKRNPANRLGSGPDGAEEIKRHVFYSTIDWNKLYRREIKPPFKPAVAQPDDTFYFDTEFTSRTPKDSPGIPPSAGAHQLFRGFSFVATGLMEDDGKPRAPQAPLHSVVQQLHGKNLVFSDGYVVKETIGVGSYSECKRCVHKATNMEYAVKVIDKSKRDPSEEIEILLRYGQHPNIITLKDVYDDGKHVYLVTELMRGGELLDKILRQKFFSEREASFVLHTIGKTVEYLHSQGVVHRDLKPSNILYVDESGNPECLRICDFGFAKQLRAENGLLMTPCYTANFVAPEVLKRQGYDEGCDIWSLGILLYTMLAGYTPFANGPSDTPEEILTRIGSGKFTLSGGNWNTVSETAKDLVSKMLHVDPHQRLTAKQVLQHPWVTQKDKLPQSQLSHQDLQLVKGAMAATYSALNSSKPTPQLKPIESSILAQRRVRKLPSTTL
# [14] = molecular target: T2, Dual specificity mitogen-activated protein kinase kinase 4 (Mus musculus) (UniProt P47809); test: Inhibition of mouse MKK4 Met at 1 uM relative to control; values are per cent of control
# T2 sequence (whole entry): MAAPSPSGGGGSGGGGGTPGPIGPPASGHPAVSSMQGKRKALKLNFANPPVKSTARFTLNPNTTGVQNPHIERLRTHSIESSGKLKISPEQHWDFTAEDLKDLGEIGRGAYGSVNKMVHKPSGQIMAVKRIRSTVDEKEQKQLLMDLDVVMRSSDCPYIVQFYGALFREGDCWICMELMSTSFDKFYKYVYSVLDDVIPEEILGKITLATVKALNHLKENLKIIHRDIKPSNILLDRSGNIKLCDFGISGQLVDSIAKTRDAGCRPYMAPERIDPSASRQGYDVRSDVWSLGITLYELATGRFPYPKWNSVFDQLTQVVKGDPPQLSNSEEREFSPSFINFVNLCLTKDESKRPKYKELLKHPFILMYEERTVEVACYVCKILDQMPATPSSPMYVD
# [15] = Inhibition of MEK1 at 1 uM relative to control; values are per cent of control; conditions: Homo sapiens
residual activity [1],residual activity [2],residual activity [3],residual activity [4],residual activity (Homo sapiens [5]),residual activity [6],residual activity (Homo sapiens [7]),residual activity (Homo sapiens [8]),residual activity [9],residual activity [10],residual activity [11],residual activity [12],residual activity [13],residual activity [14],residual activity [15],SMILES
130%,85%,106%,90%,106%,83%,88%,92%,67%,103%,102%,115%,85%,113%,,O=C1NC(=O)C2=C1c1cn(c3ccccc13)CCCc1ccc(c(N3CCCC3)n1)CCCn1cc2c2ccccc21
129%,71%,98%,117%,114%,74%,80%,74%,7%,106%,107%,97%,15%,119%,93%,CN(C)c1cc2cc(n1)CCCn1cc(c3ccccc31)C1=C(C(=O)NC1=O)c1cn(c3ccccc13)CCC2
121%,77%,105%,121%,112%,82%,88%,82%,5%,106%,103%,103%,15%,119%,91%,O=C1NC(=O)C2=C1c1cn(c3ccccc13)CCCc1cc(nc(N3CCCC3)c1)CCCn1cc2c2ccccc21
113%,86%,,104%,94%,68%,120%,86%,37%,103%,96%,100%,39%,130%,76%,CN(C)c1nc2ccc1CCCn1cc(c3ccccc31)C1=C(C(=O)NC1=O)c1cn(c3ccccc13)CC2
